Data reported in PubChem BioAssay AID248 (DTP/NCI, 2004).
Toxic doses and inconclusive results are not listed.

Tested on: L1210 leukemia ip in BDF1 mice, survival T/C
Test: NCI In Vivo Anticancer Drug Screen. Data for tumor model L1210 Leukemia (intraperitoneal) in B6D2F1 (BDF1) mice
Details: endpoint: mean survival time, higher = longer survival
In short: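 Value reflects the ratio of survival in compound-treated mice to survival in vehicle-treated controls, with both groups carrying the same transplanted tumor.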

[1] = dose: 100.0 mg/kg/injection, schedule: Q01DX009 (ip), vehicle: saline with Tween-80
[2] = dose: 100.0 mg/kg/injection, schedule: Q04DX002 (ip), vehicle: Klucel (hydroxypropylcellulose) (HPC)
[3] = dose: 200.0 mg/kg/injection, schedule: Q01DX009 (ip), vehicle: saline with Tween-80
[4] = dose: 200.0 mg/kg/injection, schedule: Q04DX002 (ip), vehicle: Klucel (hydroxypropylcellulose) (HPC)
[5] = dose: 400.0 mg/kg/injection, schedule: Q04DX002 (ip), vehicle: Klucel (hydroxypropylcellulose) (HPC)
[6] = dose: 100.0 mg/kg/injection, schedule: Q04DX003 (ip), vehicle: acetone
[7] = dose: 50.0 mg/kg/injection, schedule: Q01DX009 (ip), vehicle: saline with Tween-80
[8] = dose: 100.0 mg/kg/injection, schedule: Q01DX001 (ip), vehicle: saline

With `Nc1ncnc(N)c1NC(=O)c1cccc(C(=O)c2ccccc2)c1` the T/C (dose: 100.0 mg/kg/injection, schedule: Q04DX003 (ip), vehicle: saline) was 101 % of control, the T/C (dose: 200.0 mg/kg/injection, schedule: Q04DX003 (ip), vehicle: saline) was 100 % of control and the T/C (dose: 400.0 mg/kg/injection, schedule: Q04DX003 (ip), vehicle: saline) was 96 % of control.

For `O=[N+]([O-])c1ccc(SSc2ccc([N+](=O)[O-])cc2)cc1`, the T/C [1] was 95 % of control, the T/C [2] was 115 % of control and the T/C [3] was 87 % of control. For the same molecule, the T/C [4] was 100 % of control, the T/C (dose: 400.0 mg/kg/injection, schedule: Q01DX009 (ip), vehicle: saline with Tween-80) was 94 % of control and the T/C [5] was 86 % of control.

In the case of `COP(=O)(OC)C1CC2CCC1C2` (stereo not drawn), the T/C [6] is reported as 102 % of control, the T/C (dose: 200.0 mg/kg/injection, schedule: Q04DX003 (ip), vehicle: acetone) is reported as 102 % of control and the T/C (dose: 400.0 mg/kg/injection, schedule: Q04DX003 (ip), vehicle: acetone) is reported as 100 % of control.

In the case of `Cc1ccc(N=CNN=C(N)N)cc1`, the T/C (dose: 120.0 mg/kg/injection, schedule: Q01DX Z (oral), vehicle: methylcellulose (MC)) is reported as 97 % of control, the T/C (dose: 240.0 mg/kg/injection, schedule: Q01DX Z (ip), vehicle: methylcellulose (MC)) is reported as 101 % of control and the T/C (dose: 240.0 mg/kg/injection, schedule: Q01DX Z (oral), vehicle: methylcellulose (MC)) is reported as 96 % of control. The T/C (dose: 360.0 mg/kg/injection, schedule: Q01DX Z (ip), vehicle: methylcellulose (MC)) was 104 % of control, the T/C (dose: 480.0 mg/kg/injection, schedule: Q01DX Z (ip), vehicle: methylcellulose (MC)) was 102 % of control and the T/C (dose: 480.0 mg/kg/injection, schedule: Q01DX Z (oral), vehicle: methylcellulose (MC)) was 92 % of control.

For `O=NN(CCCl)C(=O)N[C@H]1CCCC[C@H]1O`, the T/C (dose: 12.0 mg/kg/injection, schedule: Q01DX001 (ip), vehicle: saline with Tween-80) was 176 % of control, the T/C (dose: 18.0 mg/kg/injection, schedule: Q01DX001 (ip), vehicle: saline with Tween-80) was 301 % of control and the T/C (dose: 26.0 mg/kg/injection, schedule: Q01DX001 (ip), vehicle: saline with Tween-80) was 443 % of control. For the same molecule, the T/C (dose: 40.0 mg/kg/injection, schedule: Q01DX001 (ip), vehicle: saline with Tween-80) was 442 % of control and the T/C (dose: 60.0 mg/kg/injection, schedule: Q01DX001 (ip), vehicle: saline with Tween-80) was 205 % of control.

`Cc1ccc(C)c(NC(=O)NCc2ccco2)c1` was tested, and the T/C [1] was 97 % of control and the T/C [3] was 89 % of control.

With `COCn1c2ccccc2c2nc(-c3ccncc3)nc(-c3ccncc3)c21` the T/C [2] was 98 % of control, the T/C [4] was 98 % of control and the T/C [5] was 95 % of control.

`O=[N+]([O-])c1cc2cc(Br)ccc2o1` was tested, and the T/C (dose: 12.5 mg/kg/injection, schedule: Q04DX002 (ip), vehicle: Klucel (hydroxypropylcellulose) (HPC)) was 102 % of control, the T/C (dose: 25.0 mg/kg/injection, schedule: Q04DX002 (ip), vehicle: Klucel (hydroxypropylcellulose) (HPC)) was 106 % of control and the T/C (dose: 50.0 mg/kg/injection, schedule: Q04DX002 (ip), vehicle: Klucel (hydroxypropylcellulose) (HPC)) was 97 % of control.

With `O=P1(NCCCl)OCCC(O)N1CCCl` (stereo not drawn) the T/C (dose: 100.0 mg/kg/injection, schedule: Q01DX001 (ip), vehicle: DMSO) was 242 % of control, the T/C (dose: 200.0 mg/kg/injection, schedule: Q01DX001 (ip), vehicle: DMSO) was 284 % of control and the T/C (dose: 400.0 mg/kg/injection, schedule: Q01DX001 (ip), vehicle: DMSO) was 273 % of control.

In the case of `O=C(c1ccccc1)C(c1ccccc1)(c1ccccc1)c1ccccc1`, the T/C (dose: 50.0 mg/kg/injection, schedule: Q01DX001 (ip), vehicle: carboxymethylcellulose (CMC)) is reported as 90 % of control, the T/C (dose: 100.0 mg/kg/injection, schedule: Q01DX001 (ip), vehicle: carboxymethylcellulose (CMC)) is reported as 95 % of control and the T/C [2] is reported as 97 % of control. For the same molecule, the T/C (dose: 200.0 mg/kg/injection, schedule: Q01DX001 (ip), vehicle: carboxymethylcellulose (CMC)) was 108 % of control, the T/C [4] was 94 % of control and the T/C (dose: 400.0 mg/kg/injection, schedule: Q01DX001 (ip), vehicle: carboxymethylcellulose (CMC)) was 123 % of control. The T/C [5] was 97 % of control.

For `O=C(c1ccccc1)C1CC1(C(=O)c1ccccc1)c1ccccc1` (stereo not drawn), the T/C (dose: 100.0 mg/kg/injection, schedule: Q01DX001 (ip), vehicle: saline with Tween-80) was 103 % of control, the T/C (dose: 200.0 mg/kg/injection, schedule: Q01DX001 (ip), vehicle: saline with Tween-80) was 103 % of control and the T/C (dose: 400.0 mg/kg/injection, schedule: Q01DX001 (ip), vehicle: saline with Tween-80) was 88 % of control.

`O=C(O)c1ccccc1C(=O)OO` was tested, and the T/C [7] was 97 % of control, the T/C [1] was 97 % of control and the T/C [3] was 97 % of control.

`O=C(CC(=O)C(F)(F)F)c1csc2ccccc12` was tested, and the T/C (dose: 15.0 mg/kg/injection, schedule: Q01DX015 (ip), vehicle: other) was 108 % of control, the T/C (dose: 25.0 mg/kg/injection, schedule: Q01DX009 (ip), vehicle: saline) was 92 % of control and the T/C (dose: 25.0 mg/kg/injection, schedule: Q04DX003 (ip), vehicle: acetone) was 97 % of control. For the same molecule, the T/C (dose: 30.0 mg/kg/injection, schedule: Q01DX015 (ip), vehicle: other) was 94 % of control, the T/C (dose: 50.0 mg/kg/injection, schedule: Q01DX009 (ip), vehicle: saline) was 92 % of control and the T/C (dose: 50.0 mg/kg/injection, schedule: Q04DX003 (ip), vehicle: acetone) was 100 % of control. For the same molecule, the T/C (dose: 60.0 mg/kg/injection, schedule: Q01DX015 (ip), vehicle: other) was 97 % of control, the T/C [8] was 95 % of control and the T/C [6] was 97 % of control. For the same molecule, the T/C (dose: 120.0 mg/kg/injection, schedule: Q01DX015 (ip), vehicle: other) was 94 % of control.

`CN(C)C/C(=N\O)c1ccc(Cl)cc1` was tested, and the T/C (dose: 50.0 mg/kg/injection, schedule: Q01DX009 (ip), vehicle: Klucel (hydroxypropylcellulose) (HPC)) was 93 % of control, the T/C [8] was 97 % of control and the T/C (dose: 100.0 mg/kg/injection, schedule: Q01DX009 (ip), vehicle: Klucel (hydroxypropylcellulose) (HPC)) was 93 % of control. The T/C (dose: 200.0 mg/kg/injection, schedule: Q01DX001 (ip), vehicle: saline) was 100 % of control and the T/C (dose: 200.0 mg/kg/injection, schedule: Q01DX009 (ip), vehicle: Klucel (hydroxypropylcellulose) (HPC)) was 100 % of control.

With `COc1ccc(CCC2=NCCN2)cc1OC` the T/C (dose: 100.0 mg/kg/injection, schedule: Q04DX003 (ip), vehicle: saline with Tween-80) was 103 % of control and the T/C (dose: 200.0 mg/kg/injection, schedule: Q04DX003 (ip), vehicle: saline with Tween-80) was 97 % of control.

With `CN(C)c1ccc(N=Nc2ccc(Cl)c(Cl)c2)cc1` the T/C [7] was 98 % of control, the T/C [1] was 95 % of control and the T/C [3] was 87 % of control.

With `c1cc[c]([Pb]([c]2ccccc2)([c]2ccccc2)[n]2ccnc2)cc1` the T/C (dose: 5.0 mg/kg/injection, schedule: Q01DX001 (ip), vehicle: other) was 106 % of control and the T/C (dose: 10.0 mg/kg/injection, schedule: Q01DX001 (ip), vehicle: other) was 98 % of control.

In the case of `CC(=O)OCC1OC(=O)C(C)N(C)C(=O)CN(C)C(=O)C2C(=O)CC(C)N2C(=O)C(C(C)C)NC(=O)C1NC(=O)c1c2nc3c(C(=O)NC4C(=O)NC(C(C)C)C(=O)N5C(C)CC(OC(C)=O)C5C(=O)N(C)CC(=O)N(C)C(C(C)C)C(=O)OC4C)ccc(C)c3oc-2c(C)c(=O)c1N` (stereo not drawn), the T/C (dose: 0.05 mg/kg/injection, schedule: Q01DX009 (ip), vehicle: saline with Tween-80) is reported as 94 % of control, the T/C (dose: 0.1 mg/kg/injection, schedule: Q01DX009 (ip), vehicle: saline with Tween-80) is reported as 102 % of control and the T/C (dose: 0.15 mg/kg/injection, schedule: Q04DX003 (ip), vehicle: saline with Tween-80) is reported as 95 % of control. For the same molecule, the T/C (dose: 0.2 mg/kg/injection, schedule: Q01DX009 (ip), vehicle: saline with Tween-80) was 112 % of control, the T/C (dose: 0.3 mg/kg/injection, schedule: Q04DX003 (ip), vehicle: saline with Tween-80) was 100 % of control and the T/C (dose: 0.4 mg/kg/injection, schedule: Q01DX001 (ip), vehicle: saline with Tween-80) was 102 % of control. The T/C (dose: 0.4 mg/kg/injection, schedule: Q01DX009 (ip), vehicle: saline with Tween-80) was 118 % of control, the T/C (dose: 0.6 mg/kg/injection, schedule: Q04DX003 (ip), vehicle: saline with Tween-80) was 111 % of control and the T/C (dose: 0.8 mg/kg/injection, schedule: Q01DX001 (ip), vehicle: saline with Tween-80) was 118 % of control. For the same molecule, the T/C (dose: 1.2 mg/kg/injection, schedule: Q04DX003 (ip), vehicle: saline with Tween-80) was 118 % of control, the T/C (dose: 1.6 mg/kg/injection, schedule: Q01DX001 (ip), vehicle: saline with Tween-80) was 112 % of control and the T/C (dose: 2.4 mg/kg/injection, schedule: Q04DX003 (ip), vehicle: saline with Tween-80) was 119 % of control. For the same molecule, the T/C (dose: 3.2 mg/kg/injection, schedule: Q01DX001 (ip), vehicle: saline with Tween-80) was 119 % of control and the T/C (dose: 6.4 mg/kg/injection, schedule: Q01DX001 (ip), vehicle: saline with Tween-80) was 102 % of control.
